The record followed here is patent publication US20240300936A1 (priority 2021, published 2024).

Where a name gives a salt, the structure may show the parent alone.

The subject of one assay is HELA cells. The assay is described as follows: HELA cell proliferation assay (CellTitre-Glo, 6 days). The following applies: Homo sapiens, 144 h; HELA cells, 6 days treatment, CellTitre-Glo; read-out: HeLa pIC50 (converted). It is filed as cell-based.
For the molecule `Nc1nc(NC2COc3cccc(F)c32)nc(-c2ccc3cn[nH]c3c2)n1` (stereo not drawn) [Example 5, N2-(4-fluoro-2,3-dihydrobenzofuran-3-yl)-6-(1H-indazol-6-yl)-1,3,5-triazine-2,4-diamine], the IC50 was 3.39e-06 M. On the same count and under the same terms, the result for `Nc1nc(NC2(c3ccccn3)CC2)nc(-c2ccc3cn[nH]c3c2)n1` [Example 6, 6-(1H-indazol-6-yl)-N2-[1-(2-pyridyl)cyclopropyl]-1,3,5-triazine-2,4-diamine] reads 5.89e-07 M; that for `Nc1nc(NCc2cccc(C(F)(F)F)n2)nc(-c2ccc3cn[nH]c3c2)n1` [Example 8, 6-(1H-indazol-6-yl)-N2-[[6-(trifluoromethyl)-2-pyridyl]methyl]-1,3,5-triazine-2,4-diamine], 9.33e-07 M. On the same count and under the same terms, in the case of `Nc1nc(NC2(c3ccn(C(F)F)n3)CC2)nc(-c2ccc3cn[nH]c3c2)n1` [Example 22, N2-[1-[1-(Difluoromethyl)pyrazol-3-yl]cyclopropyl]-6-(1H-indazol-6-yl)-1,3,5-triazine-2,4-diamine] it was 1.35e-07 M; in that of `Nc1nc(NC2(c3cccc(F)c3F)CC2)nc(-c2ccc3cn[nH]c3c2)n1` [Example 23, N2-[1-(2,3-Difluorophenyl)cyclopropyl]-6-(1H-indazol-6-yl)-1,3,5-triazine-2,4-diamine], 2.24e-07 M; in that of `Nc1nc(NCc2cccc(F)c2Cl)nc(-c2ccc3cn[nH]c3c2)n1` [Example 24, N2-[(2-chloro-3-fluoro-phenyl)methyl]-6-(1H-indazol-6-yl)-1,3,5-triazine-2,4-dia mine], 2.88e-07 M.

For the molecule `CC(C)(Nc1nc(N)nc(-c2ccc3cn[nH]c3c2)n1)c1cccc(F)c1F` [Example 28, N2-[1-(2,3-difluorophenyl)-1-methyl-ethyl]-6-(1H-indazol-6-yl)-1,3,5-triazine-2,4-di amine], the IC50 was 1.91e-07 M. For the molecule `Nc1nc(NCc2cccc(F)c2F)nc(-c2ccc3cncn3c2)n1` [Example 30, N4-[(2,3-Difluorophenyl)methyl]-6-imidazo[1,5-a]pyridin-6-yl-1,3,5-triazine-2,4-dia mine], the IC50 was 1.55e-07 M.

For `Cn1ncc2ccc(-c3nc(N)nc(NC4(c5ccn(C(F)F)n5)CC4)n3)cc21` [Example 32, N4-[1-[1-(Difluoromethyl)pyrazol-3-yl]cyclopropyl]-6-(1-methylindazol-6-yl)-1,3,5-triazine-2,4-diamine], the IC50 was 1.29e-06 M. For `CN(c1nc(N)nc(-c2ccc3cncn3c2)n1)C(C)(C)c1ccn(C(F)F)n1` [Example 34, N4-[1-[1-(difluoromethyl)pyrazol-3-yl]-1-methyl-ethyl]-6-imidazo[1,5-a]pyridin-6-yl-N4-methyl-1,3,5-triazine-2,4-diamine], the IC50 is 7.76e-07 M. Still for that read-out and setting: the result for `Nc1nc(NC2(c3ccn(C(F)F)n3)CC2)nc(-c2ccc3cncn3c2)n1` [Example 35, N4-[1-[1-(Difluoromethyl)pyrazol-3-yl]cyclopropyl]-6-imidazo[1,5-a]pyridin-6-yl-1,3,5-triazine-2,4-diamine] reads 1.48e-07 M.

As to `CC(C)(Nc1nc(N)nc(-c2ccc3cncn3c2)n1)c1ccn(C(F)F)n1` [Example 36, N4-[1-[1-(difluoromethyl)pyrazol-3-yl]-1-methyl-ethyl]-6-imidazo[1,5-a]pyridin-6-yl-1,3,5-triazine-2,4-diamine], the IC50 is 4.47e-08 M. As to `Cc1ncc2ccc(-c3nc(N)nc(NC(C)(C)c4ccn(C(F)F)n4)n3)cn12` [Example 37, N4-[1-[1-(difluoromethyl)pyrazol-3-yl]-1-methyl-ethyl]-6-(3-methylimidazo[1,5-a]pyridin-6-yl)-1,3,5-triazine-2,4-diamine], the IC50 is 3.55e-07 M.

As to `Cc1ncc2ccc(-c3nc(N)nc(NC(C)(C)c4cccc(F)c4F)n3)cn12` [Example 39, N4-[1-(2,3-difluorophenyl)-1-methyl-ethyl]-6-(3-methylimidazo[1,5-a]pyridin-6-yl)-1,3,5-triazine-2,4-diamine], the IC50 is 4.17e-07 M. Consider `CN(CCc1cccc(Cl)c1Cl)c1nc(N)nc(-c2ccc3cn[nH]c3c2)n1` [Example 43, N4-[2-(2,3-dichlorophenyl)ethyl]-6-(1H-indazol-6-yl)-N4-methyl-1,3,5-triazine-2,4-diamine], for which the IC50 is 2.09e-06 M. On the same count and under the same terms, the result for `Nc1nc(NCc2c(Cl)ccc(F)c2F)nc(-c2ccc3cn[nH]c3c2)n1` [Example 51, N2-[(6-chloro-2,3-difluoro-phenyl)methyl]-6-(1H-indazol-6-yl)-1,3,5-triazine-2,4-di amine] reads 1.48e-06 M; that for `Cc1cccc(CCNc2nc(N)nc(-c3ccc4cn[nH]c4c3)n2)n1` [Example 54, 6-(1H-indazol-6-yl)-N2-[2-(6-methyl-2-pyridyl)ethyl]-1,3,5-triazine-2,4-diamine], 1.66e-06 M. Still for that read-out and setting: the result for `CC(C)(Nc1nc(N)nc(-c2ccc3cn[nH]c3c2)n1)c1ccn(C(F)F)n1` [Example 60, N2-[1-[1-(difluoromethyl)pyrazol-3-yl]-1-methyl-ethyl]-6-(1H-indazol-6-yl)-1,3,5-tri azine-2,4-diamine] reads 3.47e-08 M; that for `Nc1nc(NCc2cccc(F)c2F)nc(-c2ccc3cn[nH]c3c2)n1` [Example 70, N2-[(2,3-difluorophenyl)methyl]-6-(1H-indazol-6-yl)-1,3,5-triazine-2,4-diamine], 1.15e-07 M. With `CC(C)(Nc1nc(N)nc(-c2ccc3cncn3c2)n1)c1ccccn1` [Example 72, 6-imidazo[1,5-a]pyridin-6-yl-N2-[1-methyl-1-(2-pyridyl)ethyl]-1,3,5-triazine-2,4-di amine], the IC50 was 4.07e-07 M.

On to `Nc1nc(NCc2cccc(F)c2Cl)nc(-c2ccc3cncn3c2)n1` [Example 73, N2-[(2-chloro-3-fluoro-phenyl)methyl]-6-imidazo[1,5-a]pyridin-6-yl-1,3,5-triazine-2,4-diamine], for which the IC50 was 4.27e-07 M. Turning to `Nc1nc(NCc2ccn(C(F)F)n2)nc(-c2ccc3cncn3c2)n1` [Example 74, N2-[[1-(difluoromethyl)pyrazol-3-yl]methyl]-6-imidazo[1,5-a]pyridin-6-yl-1,3,5-tria zine-2,4-diaminediamine], the IC50 was 4.9e-07 M. Same read-out and setting: the result for `Nc1nc(NC2(c3ccn(C(F)F)n3)CCC2)nc(-c2ccc3cn[nH]c3c2)n1` [Example 81, N2-[1-[1-(Difluoromethyl)pyrazol-3-yl]cyclobutyl]-6-(1H-indazol-6-yl)-1,3,5-tria zine-2,4-diamine] reads 2.14e-07 M. On the same count and under the same terms, in the case of `Cn1ncc2ccc(-c3nc(N)nc(NC4(c5ccn(C(F)F)n5)CCC4)n3)cc21` [Example 82, N4-[1-[1-(Difluoromethyl)pyrazol-3-yl]cyclobutyl]-6-(1-methylindazol-6-yl)-1,3,5-triazine-2,4-diamine] it was 2.4e-06 M; in that of `Nc1nc(NC2(c3nn(C(F)F)cc3Cl)CC2)nc(-c2ccc3cn[nH]c3c2)n1` [Example 84, N4-[1-[4-chloro-1-(difluoromethyl)pyrazol-3-yl]cyclopropyl]-6-(1H-indazol-6-yl)-1,3,5-triazine-2,4-diamine], 6.46e-07 M; in that of `COc1cccc(CNc2nc(N)nc(-c3ccc4cn[nH]c4c3)n2)c1F` [Example 85, N2-[(2-Fluoro-3-methoxy-phenyl)methyl]-6-(1H-indazol-6-yl)-1,3,5-triazine-2,4-diamine], 1.58e-06 M. Consider `Nc1nc(NC2(c3c[nH]cn3)CC2)nc(-c2ccc3cn[nH]c3c2)n1` [Example 86, N2-[1-(1H-Imidazol-4-yl)cyclopropyl]-6-(1H-indazol-6-yl)-1,3,5-triazine-2,4-dia mine; 2,2,2-trifluoroacetate], for which the IC50 is 1e-05 M.

For the molecule `Cc1ccc(CNc2nc(N)nc(-c3ccc4cn[nH]c4c3)n2)c(F)c1F` [Example 88, N2-[(2,3-Difluoro-4-methyl-phenyl)methyl]-6-(1H-indazol-6-yl)-1,3,5-triazine-2,4-diamine], the IC50 is 1.29e-06 M. The same measure, in the same setting: the result for `Nc1nc(NC2COc3cc(F)ccc32)nc(-c2ccc3cn[nH]c3c2)n1` (stereo not drawn) [Example 89, N2-(6-fluoro-2,3-dihydrobenzofuran-3-yl)-6-(1H-indazol-6-yl)-1,3,5-triazine-2,4-diamine] reads 8.51e-07 M. For the molecule `Nc1nc(NC2COc3cc(F)cc(F)c32)nc(-c2ccc3cn[nH]c3c2)n1` (stereo not drawn) [Example 90, N2-(4,6-Difluoro-2,3-dihydrobenzofuran-3-yl)-6-(1H-indazol-6-yl)-1,3,5-triazine-2,4-diamine], the IC50 is 1.55e-06 M. In the case of `Cn1ncc2ccc(-c3nc(N)nc(NC(C)(C)c4nn(C(F)F)cc4Cl)n3)cc21` [Example 97, N4-[1-[4-chloro-1-(difluoromethyl)pyrazol-3-yl]-1-methyl-ethyl]-6-(1-methylindazol-6-yl)-1,3,5-triazine-2,4-diamine], the IC50 is 7.94e-07 M.

Staying with this assay, now noted: Homo sapiens, HeLa, 144 h, read-out: HeLa pIC50 (M) (converted).
As to `Nc1nc(NC2(c3cccc(C(F)(F)F)n3)CC2)nc(-c2ccc3cn[nH]c3c2)n1` [Example 1, 6-(1H-indazol-6-yl)-N2-[1-[6-(trifluoromethyl)-2-pyridyl]cyclopropyl]-1,3,5-triazine-2,4-diamine hydrochloride], the IC50 was 1.07e-06 M. Regarding `Nc1nc(-c2ccc3cn[nH]c3c2)nc(N2CCOCC2Cc2cccc(Cl)c2Cl)n1` (stereo not drawn) [Example 3, 4-[3-[(2,3-dichlorophenyl)methyl]morpholin-4-yl]-6-(1H-indazol-6-yl)-1,3,5-triaz in-2-amine hydrochloride], the IC50 was 2.95e-06 M. `CC(C)(Nc1nc(N)nc(-c2ccc3cn[nH]c3c2)n1)c1cccc(C(F)(F)F)n1` [Example 4, 6-(1H-indazol-6-yl)-N2-[1-methyl-1-[6-(trifluoromethyl)-2-pyridyl]ethyl]-1,3,5-tr iazine-2,4-diamine hydrochloride]: the IC50 is 1.7e-07 M. On the same count and under the same terms, the result for `CC(C)(Nc1nc(N)nc(-c2ccc3cn[nH]c3c2)n1)c1ccccn1` [Example 12, 6-(1H-indazol-6-yl)-N2-[1-methyl-1-(2-pyridyl)ethyl]-1,3,5-triazine-2,4-diamine hydrochloride] reads 1.74e-07 M; that for `CC(C)(Nc1nc(N)nc(-c2ccc3cn[nH]c3c2)n1)c1ccn(CCN2CCCC2)n1` [Example 83, 6-(1H-Indazol-6-yl)-N2-[1-methyl-1-[1-(2-pyrrolidin-1-ylethyl)pyrazol-3-yl]ethyl]-1,3,5-triazine-2,4-diamine hydrochloride], 7.08e-07 M.
